The values below come from patent publication US9745261B2, “Inhibitors of the MITF molecular pathway” (THE GENERAL HOSPITAL CORPORATION, priority 2013, dated 2017).

For assay [1], the system named is primary human melanocytes. Put plainly: Cell proliferation/viability assay of primary human melanocytes. Type of assay: cell-based. Conditions: Melanocyte, 24 hours, CellTiter-Glo. As to the method: Primary human neonatal melanocytes were isolated from discarded foreskins by gentle dispase treatment and grown in Ham's F10 media supplemented with 7% FBS, penicillin/streptomycin/glutamine, 0.1 mM methyl-3-(2-methylpropyl)-7H-1-purine-2,6-dione (IBMX), 50 ng/mL 12-tetradecanoylphorbol 13-acetate (TPA), 1 μM Na3VO4 and 1 μM N(6),2′-O-dibutyryladenosine 3′:5′ cyclic monophosphate (dbcAMP). Cells were plated at 4,000 cells per well of a 384 well plate. On the following day, 10 nL of compound was added per well and incubated for 24 hours. The compounds were tested at different concentrations to determine IC50 values. At the end of compound treatment, cell viability was measured with CellTiter-Glo (Promega) and luminescence measured with the PerkinElmer EnVision plate reader. Data were normalized against DMSO in Genedata Screener's Assay Analyzer.
Primary human neonatal melanocytes were isolated from discarded foreskins by gentle dispase treatment and grown in TIVA media (Ham's F10 media supplemented with 7% FBS, penicillin/streptomycin/glutamine, 0.1 mM IBMX, 50 ng/mL TPA, […]). […]
Day 3 • 5. […] Read on the Perkin-Elmer EnVision plate reader with luminescence (LUM) settings for 0.1 sec per well. qPCR Assay for Target Gene Expression (MITF: 2084-05, TRPM1: 2084-09, CDK2: 2084-11, DCT: 2084-12, MLANA: 2084-13)

The subject of the next assay is TRPM1. Put plainly: qPCR assay for TRPM1 expression in SK-MEL-5 cells. Conditions: Homo sapiens; SK-MEL-5 melanoma cells, up to 35 μM; read-out: TRPM-1 qPCR assay EC50. The format is cell-based.
For the next assay, the system named is MLANA. As to the kind of experiment: qPCR assay for MLANA expression in SK-MEL-5 cells. The settings on record: Homo sapiens; SK-MEL-5 melanoma cells, up to 35 μM. The format is cell-based.
The target of a further assay is T1, Muscarinic M3 (Homo sapiens, UniProt P20309).
T1 construct: Eurofins Panlabs, Inc
T1 sequence (P20309 whole entry): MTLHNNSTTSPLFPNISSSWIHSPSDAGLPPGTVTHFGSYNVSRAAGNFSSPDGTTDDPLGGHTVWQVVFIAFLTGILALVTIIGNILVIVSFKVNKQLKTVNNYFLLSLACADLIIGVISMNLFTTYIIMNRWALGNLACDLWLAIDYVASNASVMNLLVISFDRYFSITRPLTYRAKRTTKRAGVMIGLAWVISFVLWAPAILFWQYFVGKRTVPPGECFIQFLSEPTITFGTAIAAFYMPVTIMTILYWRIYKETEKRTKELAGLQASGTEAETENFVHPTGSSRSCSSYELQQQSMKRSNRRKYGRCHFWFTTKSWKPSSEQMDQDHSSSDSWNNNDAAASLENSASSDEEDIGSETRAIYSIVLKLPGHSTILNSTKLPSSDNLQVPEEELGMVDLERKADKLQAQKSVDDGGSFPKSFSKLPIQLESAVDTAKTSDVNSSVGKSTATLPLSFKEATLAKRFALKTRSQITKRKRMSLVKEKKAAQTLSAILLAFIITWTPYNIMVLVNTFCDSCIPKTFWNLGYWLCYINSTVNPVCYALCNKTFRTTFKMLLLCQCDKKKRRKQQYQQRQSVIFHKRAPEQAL
Put plainly: Radioligand binding, Muscarinic M3.

The next assay concerns the target T2, Transporter, GABA (Rattus norvegicus, UniProt P23978).
T2 construct: Eurofins Panlabs
As to the kind of experiment: Radioligand binding, Transporter, GABA.

Assay [2] concerns the target T3, Leukotriene, Cysteinyl CysLT1 (Homo sapiens, UniProt Q9Y271).
T3 construct: Eurofins Panlabs, Inc
Put plainly: Radioligand binding, Leukotriene, Cysteinyl CysLT1.

Assay [3] deals with T4, Serotonin (5-Hydroxytryptamine) 5-HT2B (Homo sapiens, UniProt P41595).
T4 construct: Eurofins Panlabs
T4 sequence (P41595 whole entry): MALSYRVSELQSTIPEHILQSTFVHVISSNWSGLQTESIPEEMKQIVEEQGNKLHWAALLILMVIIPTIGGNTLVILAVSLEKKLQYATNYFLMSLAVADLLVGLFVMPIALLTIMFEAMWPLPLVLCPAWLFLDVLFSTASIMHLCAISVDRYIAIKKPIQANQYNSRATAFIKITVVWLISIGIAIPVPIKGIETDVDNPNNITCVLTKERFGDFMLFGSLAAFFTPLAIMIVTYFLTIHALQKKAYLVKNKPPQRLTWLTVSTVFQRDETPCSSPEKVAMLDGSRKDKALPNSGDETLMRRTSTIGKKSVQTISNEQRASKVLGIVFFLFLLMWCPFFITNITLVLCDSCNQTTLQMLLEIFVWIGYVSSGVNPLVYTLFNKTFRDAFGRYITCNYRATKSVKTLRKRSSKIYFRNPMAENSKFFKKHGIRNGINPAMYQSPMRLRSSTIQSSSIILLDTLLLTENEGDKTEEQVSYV
Put plainly: Radioligand binding, Serotonin (5-Hydroxytryptamine) 5-HT2B.

In assay [4] the target is T5, Platelet Activating Factor (PAF) (Homo sapiens, UniProt P25105).
T5 construct: Eurofins Panlabs
T5 sequence (P25105 whole entry): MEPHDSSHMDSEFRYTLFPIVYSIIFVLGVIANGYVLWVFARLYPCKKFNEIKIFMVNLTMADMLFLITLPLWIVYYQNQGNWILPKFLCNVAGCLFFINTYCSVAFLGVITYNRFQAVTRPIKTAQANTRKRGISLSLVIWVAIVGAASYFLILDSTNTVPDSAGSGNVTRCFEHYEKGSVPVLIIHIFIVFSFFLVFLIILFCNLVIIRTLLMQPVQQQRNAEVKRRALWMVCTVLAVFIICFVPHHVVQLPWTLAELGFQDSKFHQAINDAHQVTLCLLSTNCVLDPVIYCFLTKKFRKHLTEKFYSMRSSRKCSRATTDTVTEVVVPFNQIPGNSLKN
Put plainly: Radioligand binding, Platelet Activating Factor (PAF).

Another assay addresses T6, Endothelin ETA (Homo sapiens, UniProt P25101).
T6 construct: Eurofins Panlabs, Inc. (contract assay)
As to the kind of experiment: Radioligand binding, Endothelin ETA.

A further assay concerns the target T7, Muscarinic M2 (Homo sapiens, UniProt P08172).
T7 construct: Eurofins Panlabs, Inc
As to the kind of experiment: Radioligand binding, Muscarinic M2.

Another assay concerns the target T8, Dopamine D1 (Homo sapiens, UniProt P21728).
T8 construct: Eurofins Panlabs, Inc. (contract assay)
Put plainly: Radioligand binding, Dopamine D1.

Another assay addresses T9, Adrenergic α1A (Rattus norvegicus, UniProt P43140).
T9 construct: Eurofins Panlabs, Inc. (contract assay) 203100 (assay number)
As to the kind of experiment: Radioligand binding, Adrenergic α1A.

The next assay has as its target T10, Opiate μ (OP3, MOP) (Homo sapiens, UniProt P35372).
T10 construct: Eurofins Panlabs, Inc
Put plainly: Radioligand binding, Opiate μ (OP3, MOP).

Assay [5] concerns the target T11, Nicotinic Acetylcholine α1, Bungarotoxin (Homo sapiens, UniProt P02708+P07510+Q07001).
T11 construct: Eurofins Panlabs, Inc
Put plainly: biochemical. The format is binding. The settings on record: read-out: % Inh.

For the next assay, the target named is T12, Calcium Channel N-Type (Rattus norvegicus, UniProt Q02294).
T12 construct: Eurofins Panlabs, Inc. (contract assay)
As to the kind of experiment: Radioligand binding, Calcium Channel N-Type.

For another assay, the target named is T13, Adenosine A2A (Homo sapiens, UniProt P29274).
T13 construct: Eurofins Panlabs, Inc. (contract assay) 200610 (assay number)
T13 sequence (P29274 whole entry): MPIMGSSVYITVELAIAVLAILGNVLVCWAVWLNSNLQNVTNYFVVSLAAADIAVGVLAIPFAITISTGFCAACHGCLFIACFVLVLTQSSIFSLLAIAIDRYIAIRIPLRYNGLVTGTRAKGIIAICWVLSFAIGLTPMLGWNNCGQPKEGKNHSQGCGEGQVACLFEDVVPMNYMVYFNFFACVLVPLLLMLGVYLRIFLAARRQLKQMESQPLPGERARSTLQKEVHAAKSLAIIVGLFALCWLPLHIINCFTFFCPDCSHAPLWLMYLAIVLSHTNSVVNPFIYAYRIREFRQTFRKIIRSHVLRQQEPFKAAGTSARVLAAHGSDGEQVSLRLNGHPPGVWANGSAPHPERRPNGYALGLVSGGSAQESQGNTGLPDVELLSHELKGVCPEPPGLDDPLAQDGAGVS
Put plainly: Radioligand binding, Adenosine A2A.

The next assay concerns the target T14, Adrenergic β2 (Homo sapiens, UniProt P07550).
T14 construct: Eurofins Panlabs, Inc. (contract assay)
As to the kind of experiment: Radioligand binding, Adrenergic β2.

The next assay deals with T15, Histamine H1 (Homo sapiens, UniProt P35367).
T15 construct: Eurofins Panlabs, Inc
T15 sequence (P35367 whole entry): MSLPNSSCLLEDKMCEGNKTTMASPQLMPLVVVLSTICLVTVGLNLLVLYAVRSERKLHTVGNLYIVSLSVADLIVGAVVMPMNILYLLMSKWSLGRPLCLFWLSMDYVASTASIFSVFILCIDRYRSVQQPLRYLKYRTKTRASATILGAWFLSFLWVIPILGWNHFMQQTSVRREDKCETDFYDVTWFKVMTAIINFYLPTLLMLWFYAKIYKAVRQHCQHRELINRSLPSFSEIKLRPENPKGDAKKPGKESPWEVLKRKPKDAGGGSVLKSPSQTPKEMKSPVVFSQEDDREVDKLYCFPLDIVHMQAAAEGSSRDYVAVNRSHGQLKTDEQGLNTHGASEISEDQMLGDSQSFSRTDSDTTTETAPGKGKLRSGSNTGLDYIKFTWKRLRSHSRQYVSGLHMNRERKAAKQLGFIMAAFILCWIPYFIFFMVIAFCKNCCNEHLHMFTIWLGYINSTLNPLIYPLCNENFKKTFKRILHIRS
Put plainly: Radioligand binding, Histamine H1.

For the next assay, the target named is T16, Adrenergic α1B (Rattus norvegicus, UniProt P15823).
T16 construct: Eurofins Panlabs, Inc. (contract assay)
T16 sequence (P15823 whole entry): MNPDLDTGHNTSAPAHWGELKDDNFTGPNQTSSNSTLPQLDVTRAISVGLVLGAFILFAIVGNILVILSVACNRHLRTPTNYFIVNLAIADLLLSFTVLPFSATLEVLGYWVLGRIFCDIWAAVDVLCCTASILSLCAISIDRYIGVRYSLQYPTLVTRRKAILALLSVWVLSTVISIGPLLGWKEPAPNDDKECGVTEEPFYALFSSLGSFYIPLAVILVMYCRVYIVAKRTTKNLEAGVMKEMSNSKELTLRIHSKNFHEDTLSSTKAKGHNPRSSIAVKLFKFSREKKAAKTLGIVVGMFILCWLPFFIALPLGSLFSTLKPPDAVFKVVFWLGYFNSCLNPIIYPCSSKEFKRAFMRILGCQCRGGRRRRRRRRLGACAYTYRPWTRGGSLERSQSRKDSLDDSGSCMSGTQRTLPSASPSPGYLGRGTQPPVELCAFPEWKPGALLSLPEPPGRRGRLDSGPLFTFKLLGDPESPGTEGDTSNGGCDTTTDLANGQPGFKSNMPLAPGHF
As to the kind of experiment: Radioligand binding, Adrenergic α1B.

For assay [6], the target named is T17, Androgen (Testosterone) AR (Rattus norvegicus, UniProt P15207).
T17 construct: Eurofins Panlabs, Inc. (contract assay)
Put plainly: Radioligand binding, Androgen (Testosterone) AR.

The next assay concerns the target T18, Adrenergic α1D (Homo sapiens, UniProt P25100).
T18 construct: Eurofins Panlabs, Inc. (contract assay)
Put plainly: Radioligand binding, Adrenergic α1D.

For a further assay, the target named is T19, Potassium Channel [KATP] (Cricetus cricetus, UniProt Q09427).
T19 construct: Eurofins Panlabs
Put plainly: Radioligand binding, Potassium Channel [KATP]. Conditions: hamster. As to the method: To evaluate, in radioligand binding assays, the activity of the compound of Example 1 across a panel of 67 receptors.
Methods employed in this study have been adapted from the scientific literature to maximize reliability and reproducibility. Reference standards were run as an integral part of each assay to ensure the validity of the results obtained.
Where presented, IC50 values were determined by a non-linear, least squares regression analysis using MathIQ™ (ID Business Solutions Ltd., UK). Where inhibition constant (Ki) are presented, the Ki values were calculated using the equation of Cheng and Prusoff (Cheng. Y., Prusoff, W. H., Biochem. Pharmacol. 22:3099-3108, 1973) using the observed IC50 of the tested compound, the concentration of radioligand employed in the assay, and the historical values of the KD of the ligand (obtained experimentally at Eurofins Panlabs, Inc.). Where presented, the Hill coefficient (nH), defining the slope of the competitive binding curve, was calculated using MathIQ™. […] Where IC50, Ki, and/or nH data are presented without Standard Error of the Mean (SEM), data are insufficient to be quantitative, and the values presented (Ki, IC50, nH) should be interpreted with caution.

T18 sequence (P25100 whole entry): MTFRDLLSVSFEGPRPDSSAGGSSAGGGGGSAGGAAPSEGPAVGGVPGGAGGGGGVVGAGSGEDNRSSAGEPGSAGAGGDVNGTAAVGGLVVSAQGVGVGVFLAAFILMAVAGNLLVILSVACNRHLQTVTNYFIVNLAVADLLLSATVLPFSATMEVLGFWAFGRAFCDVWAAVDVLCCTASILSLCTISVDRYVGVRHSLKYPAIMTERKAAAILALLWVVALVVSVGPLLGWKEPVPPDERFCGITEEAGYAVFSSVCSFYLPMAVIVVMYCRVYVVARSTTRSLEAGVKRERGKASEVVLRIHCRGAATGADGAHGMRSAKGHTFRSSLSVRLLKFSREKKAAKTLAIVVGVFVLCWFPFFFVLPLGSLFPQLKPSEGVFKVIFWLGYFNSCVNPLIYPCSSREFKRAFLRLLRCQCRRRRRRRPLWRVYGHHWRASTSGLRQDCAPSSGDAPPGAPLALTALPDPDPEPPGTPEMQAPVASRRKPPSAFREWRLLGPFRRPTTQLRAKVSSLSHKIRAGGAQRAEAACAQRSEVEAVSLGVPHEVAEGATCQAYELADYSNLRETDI
T7 sequence (P08172 whole entry): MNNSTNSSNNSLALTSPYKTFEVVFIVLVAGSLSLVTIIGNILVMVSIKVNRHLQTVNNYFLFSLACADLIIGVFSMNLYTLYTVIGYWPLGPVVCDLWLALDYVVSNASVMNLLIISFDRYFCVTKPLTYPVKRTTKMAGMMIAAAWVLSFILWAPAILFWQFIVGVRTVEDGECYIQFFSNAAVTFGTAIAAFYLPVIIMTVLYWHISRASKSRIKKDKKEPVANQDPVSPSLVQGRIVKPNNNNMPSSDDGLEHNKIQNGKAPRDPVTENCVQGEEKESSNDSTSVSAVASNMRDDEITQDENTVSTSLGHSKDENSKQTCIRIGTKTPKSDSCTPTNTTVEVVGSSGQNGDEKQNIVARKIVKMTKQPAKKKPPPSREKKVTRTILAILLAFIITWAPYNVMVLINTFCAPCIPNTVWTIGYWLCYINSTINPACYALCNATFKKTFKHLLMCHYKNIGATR
T10 sequence (P35372 whole entry): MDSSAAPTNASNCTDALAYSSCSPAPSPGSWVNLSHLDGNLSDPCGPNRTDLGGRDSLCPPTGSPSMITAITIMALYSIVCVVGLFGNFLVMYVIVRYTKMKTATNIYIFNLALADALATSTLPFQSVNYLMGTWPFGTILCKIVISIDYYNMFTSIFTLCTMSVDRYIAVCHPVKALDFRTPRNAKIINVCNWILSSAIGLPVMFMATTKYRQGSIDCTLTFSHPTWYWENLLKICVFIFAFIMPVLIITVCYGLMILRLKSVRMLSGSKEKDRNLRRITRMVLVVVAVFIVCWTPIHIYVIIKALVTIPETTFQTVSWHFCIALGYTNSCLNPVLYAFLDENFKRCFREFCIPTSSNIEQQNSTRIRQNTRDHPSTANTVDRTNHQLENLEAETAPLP

`NS(=O)(=O)c1ccc(NC2=CC(=O)c3ccccc3C2=O)cc1` [4-((1,4-dioxo-1,4-dihydronaphthalen-2-yl)amino)benzenesulfonamide] returned a half-inhibitory concentration (IC50) in [1] of 7140 nM. Besides, the results for the EC50 in the assay on TRPM1 and with MLANA were 160 nM and 500 nM, respectively.

In the case of `NS(=O)(=O)c1ccc(NC2=CC(=O)c3ccccc3C2=O)cc1` [Example 1, 4-((1,4-Dioxo-1,4-dihydronaphthalen-2-yl)amino)benzenesulfonamide], the inhibition at 10 µM came to 22% at Muscarinic M3; 9% at Transporter, GABA; 5% in assay [2]; 37% in assay [3]; 3% in assay [4]; 17% at Endothelin ETA. For the same molecule, the inhibition at 10 µM on Muscarinic M2 is 15%; on Dopamine D1, 21%; at Adrenergic α1A it was 28%; at Opiate μ (OP3, MOP), 1%; in assay [5], -2%; at Calcium Channel N-Type it was -3%. Further, the inhibition at 10 µM at Adenosine A2A is 50%; at Adrenergic β2, 10%; on Histamine H1, -5%; on Adrenergic α1B, 16%; in [6] it was 14%; on Adrenergic α1D, 21%. Moreover, the inhibition at 10 µM on Potassium Channel [KATP] is 10%.
